Experimental data: patent publication US12240846B2 (Enliven Inc., priority 2020, dated 2025)

Experiments:
[1] = tested on: K562 cells; assay: K562 cell proliferation assay (CellTiter-Glo); type: cell-based; details: Homo sapiens, K562 cell viability, 72 hours, read-out: Cell Line (IC50, nM) K562
Method: (§1) K562 and HL60 Cell Proliferation Assay
(§2) K562 and HL60 cells, cultured in Iscove's Modified Dulbecco's Media (IMDM) supplemented with 10% FBS, were harvested at 50-80% confluency and plated at 2,000 cells per well (K562) or 1,500 cells per well (HL60) in 384-well tissue culture plates. A subset of wells contained media only (low control, LC). […] The plates were placed in a 37° C. incubator with 5% CO2 for 72 hours. Cell viability was measured using a CellTiter-Glo luminescent cell viability assay (Promega), which allows for relative quantification of metabolically active cells by luminescence-based measurements of intracellular ATP concentrations. Briefly, plates were removed from the incubator and equilibrated for 15 minutes at room temperature prior to the addition of 40 μL of CellTiter-Glo reagent. Plates were then incubated for 30 minutes at room temperature. Luminescence was measured using an EnSpire plate reader (Perkin Elmer). As noted above, luminescence values from wells with DMSO only or media without cells were used as high and low controls (HC and LC), respectively. Normalized percent viability was calculated as follows: percent viability=100×(Lumsample−LumLC)/(LumHC−LumLC).

[2] = tested on: HL60 cells; assay: HL60 cell proliferation assay (CellTiter-Glo); type: cell-based; details: Homo sapiens, HL-60, HL60 cell viability, 72 hours, read-out: Cell Line (IC50, nM) HL60
Method: as §1, §2

[3] = biological target: T1, ABL1 (Homo sapiens, UniProt P00519); assay: Luminescence-based ABL kinase assay (300 μM ATP), ADP-Glo; type: biochemical
T1 construct: purchased Carna Biosciences
Excerpt: Compounds were serially diluted in DMSO. […] Luminescence signal positively correlates with kinase activity.

[4] = biological target: ABL1 (T315I) (Homo sapiens, UniProt P00519, T315I); assay: as above; type: biochemical
Method: Kinase activity of ABL1 was measured using the ADP-Glo system (Promega), which measures formation of ADP using a luminescence-based method. Compounds were serially diluted in DMSO. 20 nL of compound or DMSO only (high control, HC) were added to a 384-well plate (OptiPlate-384. PerkinElmer) using an Echo550 liquid handler (Labcyte). 15 μL of kinase solution (10 mM MgCl2, 0.01% Brij-35, 2 mM DTT, 0.05% BSA, 1 mM EGTA, 50 mM HEPES pH 7.5, and 3.325 nM ABL1 [Carna Biosciences]) were added to each well of the 384-well plate containing the compounds. No enzyme control wells were included (low control, LC). The plate was incubated at room temperature for 30 minutes. 5 μL of a second solution containing 10 mM MgCl2, 0.01% Brij-35, 2 mM DTT, 0.05% BSA, 1 mM EGTA, 50 mM HEPES pH 7.5, 6 μM Peptide 2 (Perkin Elmer, Cat No 760346), and 1.2 mM ATP were added to each well to start the kinase reaction. The plate was incubated for 90 minutes at room temperature. 20 μL of ADP-Glo reagent (Promega) were then added to each well and the plate was incubated for 40 minutes at room temperature. 40 μL of kinase detection reagent (Promega) was added to each well and the plate was incubated for an additional 45 minutes at room temperature. During this step, ADP was converted to ATP, a substrate for luciferase, to produce luminescence signal. Luminescence was measured on an Envision plate reader (Perkin Elmer). Luminescence signal positively correlates with kinase activity. The percent kinase activity was calculated as follows: percent kinase activity=100×(Lumsample−LumLC)/(LumHC−LumLC). As noted above, DMSO only and no enzyme wells were used as high and low controls, respectively. IC50 values were calculated using the XLFit software.

SMILES | IC50 [1] [nM] | IC50 [2] [nM] | IC50 [3] [nM] | IC50 [4] [nM]
COc1ncc(F)c(OC)c1-c1cc2cc(NC(=O)NCCN3CCNCC3)ncc2n1C [Compound 82, 3-[2-(5-fluoro-2,4-dimethoxypyridin-3-yl)-1-methylpyrrolo[2,3-c]pyridin-5-yl]-1-[2-(piperazin-1-yl)ethyl]urea formic acid] | 125 | > 10000 | 31.6 | 88.1
CCN1CCN(CCNC(=O)Nc2cc3cc(-c4c(OC)ccnc4OC)n(C)c3cn2)CC1 [Compound 83, 3-[2-(2,4-dimethoxypyridin-3-yl)-1-methylpyrrolo[2,3-c]pyridin-5-yl]-1-[2-(4-ethylpiperazin-1-yl)ethyl]urea formic acid] | 160 | > 10000 | 106 | 230
COc1ncnc(OC2CC2)c1-c1cc2cc(NC(=O)[C@@H]3C[C@@H]3F)ncc2n1C [Compound 85, (1S,2S)-N-[2-(4-cyclopropoxy-6-methoxypyrimidin-5-yl)-1-methylpyrrolo[2,3-c]pyridin-5-yl]-2-fluorocyclopropane-1-carboxamide] | 16.5 | 1710 | 4.33 | 147
COc1ccnc(C)c1-c1cc2cc(NC(=O)[C@@H]3C[C@@H]3F)ncc2n1C [Compound 86, (1S,2S)-2-fluoro-N-(2-(4-methoxy-2-methylpyridin-3-yl)-1-methyl-1H-pyrrolo[2,3-c]pyridin-5-yl)cyclopropane-1-carboxamide] | 700 | > 10000 | 200 | 2930
CCN1CCN(CCNC(=O)Nc2cc3cc(-c4c(OC)cccc4OC)n(C)c3cn2)CC1 [Compound 87, 1-(2-(2,6-dimethoxyphenyl)-1-methyl-1H-pyrrolo[2,3-c]pyridin-5-yl)-3-(2-(4-ethylpiperazin-1-yl)ethyl)urea] | 78.5 | > 10000 | 35 | 76.6
[2H]C([2H])([2H])Oc1ncc(F)cc1-c1cc2cc(NC(=O)[C@@H]3C[C@@H]3F)ncc2n1C([2H])([2H])[2H] [Compound 88, (1S,2S)-2-fluoro-N-(2-(5-fluoro-2-(methoxy-d3)pyridin-3-yl)-1-(methyl-d3)-1H-pyrrolo[2,3-c]pyridin-5-yl)cyclopropane-1-carboxamide] | 166 | 5150 | 409 | 459
COc1nccc(F)c1-c1cc2cc(NC(=O)[C@@H]3C[C@@H]3F)ncc2n1C [Compound 89, (1S,2S)-2-fluoro-N-[2-(4-fluoro-2-methoxypyridin-3-yl)-1-methylpyrrolo[2,3-c]pyridin-5-yl]cyclopropane-1-carboxamide] | 153 | 2110 | 76.6 | 15
CCc1ncnc(OC)c1-c1cc2cc(NC(=O)[C@@H]3C[C@@H]3F)ncc2n1C [Compound 92, (1S,2S)-N-[2-(4-ethyl-6-methoxypyrimidin-5-yl)-1-methylpyrrolo[2,3-c]pyridin-5-yl]-2-fluorocyclopropane-1-carboxamide] | 227 | > 10000 | 494 | 1650
COc1ncnc(OC)c1-c1cc2cc(NC(=O)[C@H]3C[C@H]3F)ncc2n1C [Compound 94, (1R,2R)-N-[2-(4,6-dimethoxypyrimidin-5-yl)-1-methylpyrrolo[2,3-c]pyridin-5-yl]-2-fluorocyclopropane-1-carboxamide] | 79.4 | 9640 | 57.4 | 127
COc1ccnc(OC)c1-c1cc2cc(NC(=O)[C@H]3C[C@H]3F)ncc2n1C [Compound 97, (1R,2R)-N-[2-(2,4-dimethoxypyridin-3-yl)-1-methylpyrrolo[2,3-c]pyridin-5-yl]-2-fluorocyclopropane-1-carboxamide] | 91.5 | 3320 | 36.6 | 76.4
COc1ncnc(OC)c1-c1cc2cc(NC(=O)[C@@H]3C[C@@H]3F)ncc2[nH]1 [Compound 99, (1S,2S)-N-(2-(4,6-dimethoxypyrimidin-5-yl)-1H-pyrrolo[2,3-c]pyridin-5-yl)-2-fluorocyclopropane-1-carboxamide] | 396 | > 10000 | 111 | > 10000
CNc1nc(OC)c(-c2cc3cc(NC(=O)[C@@H]4C[C@@H]4F)ncc3n2C)c(OC)n1 [Compound 105, (1S,2S)-N-(2-(4,6-dimethoxy-2-(methylamino)pyrimidin-5-yl)-1-methyl-1H-pyrrolo[2,3-c]pyridin-5-yl)-2-fluorocyclopropane-1-carboxamide] | 60.9 | 199 | 71.4 | 79
COc1ncnc(O)c1-c1cc2cc(NC(=O)[C@@H]3C[C@@H]3F)ncc2n1C [Compound 106, (1S,2S)-2-fluoro-N-[2-(4-hydroxy-6-methoxypyrimidin-5-yl)-1-methylpyrrolo[2,3-c]pyridin-5-yl]cyclopropane-1-carboxamide] | > 10000 | > 10000 | 1690 | > 10000
COc1cnnc(OC)c1-c1cc2cc(NC(=O)[C@@H]3C[C@@H]3F)ncc2n1C [Compound 107, (1S,2S)-N-[2-(3,5-dimethoxypyridazin-4-yl)-1-methylpyrrolo[2,3-c]pyridin-5-yl]-2-fluorocyclopropane-1-carboxamide] | 40.5 | 2550 | 17.4 | 94.6
COc1nc(O)nc(OC)c1-c1cc2cc(NC(=O)[C@@H]3C[C@@H]3F)ncc2n1C [Compound 108, (1S,2S)-2-fluoro-N-(2-(2-hydroxy-4,6-dimethoxypyrimidin-5-yl)-1-methyl-1H-pyrrolo[2,3-c]pyridin-5-yl)cyclopropane-1-carboxamide] | 736 | > 10000 | 6.32 | 12.4
CCc1ncccc1-c1cc2cc(NC(=O)[C@@H]3C[C@@H]3F)ncc2n1C [Compound 112, (1S,2S)-N-[2-(2-ethylpyridin-3-yl)-1-methylpyrrolo[2,3-c]pyridin-5-yl]-2-fluorocyclopropane-1-carboxamide] | 1780 | > 10000 | 1320 | 564
COc1ncnc(C)c1-c1cc2cc(NC(=O)[C@@H]3C[C@@H]3F)ncc2n1C [Compound 113, (1S,2S)-2-fluoro-N-[2-(4-methoxy-6-methylpyrimidin-5-yl)-1-methylpyrrolo[2,3-c]pyridin-5-yl]cyclopropane-1-carboxamide] | 314 | > 10000 | 84.4 | 366
CCOc1nccc(C)c1-c1cc2cc(NC(=O)[C@@H]3C[C@@H]3F)ncc2n1C [Compound 114, (1S,2S)-N-[2-(2-ethoxy-4-methylpyridin-3-yl)-1-methylpyrrolo[2,3-c]pyridin-5-yl]-2-fluorocyclopropane-1-carboxamide] | 257 | > 10000 | 77 | 546
Cn1c(-c2cccnc2OC2CC2)cc2cc(NC(=O)[C@@H]3C[C@@H]3F)ncc21 [Compound 115, (1S,2S)-N-[2-(2-cyclopropoxypyridin-3-yl)-1-methylpyrrolo[2,3-c]pyridin-5-yl]-2-fluorocyclopropane-1-carboxamide] | 80.8 | 1550 | 18.5 | 469
Cn1c(-c2cnccc2OC2CC2)cc2cc(NC(=O)[C@@H]3C[C@@H]3F)ncc21 [Compound 116, (1S,2S)-N-[2-(4-cyclopropoxypyridin-3-yl)-1-methylpyrrolo[2,3-c]pyridin-5-yl]-2-fluorocyclopropane-1-carboxamide] | 256 | 9310 | 66.9 | 1190
Cn1c(-c2ccncc2OC2CC2)cc2cc(NC(=O)[C@@H]3C[C@@H]3F)ncc21 [Compound 117, (1S,2S)-N-[2-(3-cyclopropoxypyridin-4-yl)-1-methylpyrrolo[2,3-c]pyridin-5-yl]-2-fluorocyclopropane-1-carboxamide] | 141 | 4180 | 43.3 | 662
COc1ncnc(OC)c1-c1cc2cc(NC(=O)C3CC3)ncc2n1C [Compound 118, N-[2-(4,6-dimethoxypyrimidin-5-yl)-1-methylpyrrolo[2,3-c]pyridin-5-yl]cyclopropanecarboxamide] | 71.4 | 929 | 35.3 | 108
COc1cccc(OC)c1-c1cc2cc(NC(=O)[C@@H]3C[C@@H]3F)ncc2n1C [Compound 119, (1S,2S)-N-[2-(2,6-dimethoxyphenyl)-1-methylpyrrolo[2,3-c]pyridin-5-yl]-2-fluorocyclopropane-1-carboxamide] | 9.35 | 159 | 2.38 | 1.76
COc1nc(C)ncc1-c1cc2cc(NC(=O)[C@@H]3C[C@@H]3F)ncc2n1C [Compound 141, (1S,2S)-2-fluoro-N-[2-(4-methoxy-2-methylpyrimidin-5-yl)-1-methylpyrrolo[2,3-c]pyridin-5-yl]cyclopropane-1-carboxamide] | 381 | > 10000 | 316 | 1990
